How the values were obtained:
[1] = Toxicokinetic behavior of the conjugate and released toxin molecules after repeated intravenous dosing; assay type: in vivo, cynomolgus monkeys; conditions: after the last dosing with 50 mg/kg conjugate A
Description: The cynomolgus monkeys were divided into four groups according to different doses: control group, 25 mg/kg dose group, 50 mg/kg dose group and 75 mg/kg dose group, with 5 males and 5 females in each group. […] For the monkeys in each group, blood samples were collected before and immediately after, and 4 h, 24 h, 48 h, 96 h and 168 h after the first and last dosing (0-1 min after the end of dosing), 1 h before and immediately after the second and third dosing (0-1 min after the end of dosing), and 336 h after the last dosing.

[2] = Clinical trial, pharmacokinetic study of the dose-escalation cohort; assay type: in vivo, human; conditions: patients, first 4-week cycle
Description: Based on the patient's weight, a dose escalation design with five dose cohorts of 2, 4, 6, 9 and 12 mg/kg was employed, which were injected intravenously once every two weeks, every 28 days as a cycle, and were given every cycle until the disease progressed or an intolerable toxic reaction occurred. The toxicity of all planned dose groups and some intermediate dose groups was evaluated by BLRM. Based on the model analysis, the sponsor and the researcher jointly decided the decision of dose increase.

## CC[C@@]1(O)C(=O)OCc2c1cc1n(c2=O)Cc2c-1nc1ccccc1c2CCN(C(C)C)S(C)(=O)=O [toxins]
[1]; female monkeys
  exposure to the toxin molecules: 3850 ng·h/mL
[1]; male monkeys
  exposure to the toxin molecules: 5860 ng·h/mL
[2]
  plasma exposure of free payload (area under the curve (AUC)) relative to that of Conjugate A: ~5%
  plasma exposure of free payload (maximum plasma concentration (Cmax)) relative to that of Conjugate A: approximately 6%
